# Measured values as given in patent US9695192B2, “Fused heterocyclic compounds as ion channel modulators” (GILEAD SCIENCES, INC., priority 2011, dated 2017).
# Target: wild-type human cardiac sodium channel, hNav1.5 (Homo sapiens, UniProt Q14524)
# Experiment: Late INa screening assay (QPatch whole cell patch clamp, tefluthrin-enhanced late sodium current)
# Assay type: cell-based
# Settings: HEK293 hNav1.5, late INa activated with 10 μM Tefluthrin
# Protocol: The late sodium current (Late INa) and peak sodium current (Peak INa) assays are performed on an automated electrophysiology platform, QPatch 16X (Sophion Bioscience, Copenhagen, Denmark), which uses the whole cell patch clamp technique to measure currents through the cell membrane of up to 16 cells at a time. The assay uses an HEK293 (human embryonic kidney) cell line heterologously expressing the wild-type human cardiac sodium channel, hNav1.5, purchased from Millipore (Billerica, Mass.). No beta subunits were coexpressed with the Na channel alpha subunit. Cells are maintained with standard tissue culture procedures and stable channel expression is maintained with 400 μg/mL Geneticin in the culture medium. Cells isolated for use on QPatch are incubated for 5 minutes in Detachin 1X (Genlantis, San Diego, USA) at 37° C. to ensure that 80-90% of the cells are single and not part of a cell cluster. Experiments are carried out at 23-25° C.
# For both the Late INa and Peak INa assays, series resistance compensation is set to 100% and series resistance and whole-cell compensation are performed automatically. Currents are digitized at 25 kHz and low-pass filtered at 12 kHz and 10 kHz for the late and peak INa assays, respectively. Currents through open sodium channels are automatically recorded and stored in the Sophion Bioscience Oracle database (Sophion Bioscience, Copenhagen, Denmark). Analysis is performed using QPatch Assay and database software and data are compiled in Excel.
# Compound stocks are routinely made by the Gilead Sample Bank in plastic vials to 10 mM in dimethyl sulfoxide (DMSO). In some cases, when compounds are not soluble in DMSO, they are made in 100% ethanol. Stocks are sonicated as necessary. The extracellular solution for screening Late INa is composed of: 140 mM NaCl, 4 mM KCl, 1.8 mM CaCl2, 0.75 mM MgCl2 and 5 mM HEPES with pH adjusted to 7.4 using NaOH. The intracellular solution used to perfuse the inside of the cells for both the Late INa and Peak INa assays contains: 120 mM CsF, 20 mM CsCl, 5 mM EGTA, 5 mM HEPES and pH adjusted to 7.4 with CsOH. Compounds are diluted in extracellular solution to 1 μM in glass vials and then transferred to glass well plates before robotic addition to the cells. A 0 mM Na extracellular solution (0 Na-ECF) is used at the end of each experiment for the Late INa and Peak INa assays to measure baseline current contains: 140 mM N-methyl-D-glucamine; 4 mM KCl; 1.8 mM CaCl2; 0.75 mM MgCl2; 5 mM HEPES and pH was adjusted to 7.4 with HCl.
# For the hNav1.5 Late INa assay, sodium channels are activated every 10 seconds (0.1 Hz) by depolarizing the cell membrane to −20 mV for 250 milliseconds (ms) from a holding potential of −120 mV. In response to a −20 mV voltage step, typical hNav1.5 sodium currents activate rapidly to a peak negative current and then inactivate nearly completely within 3-4 ms.
# Compounds were tested to determine their activity in blocking the late sodium current. Late INa was generated by adding 10 μM Tefluthrin (pyrethroid) to the extracellular solution while recording Na currents. To confirm the block of late INa observed using the automated screening method, a second late INa enhancer (ATX-II) and the manual patch clamp method were used. ATX-II and tefluthrin occupy distinct, non-overlapping binding sites and modify Na^+ channel function differently to increase late INa. Compounds tested have been found generally to inhibit the enhanced late INa caused by either late INa enhancer. For the purposes of the screening, late INa is defined as the mean current between 225 ms and 250 ms after stepping to −20 mV to activate Na channels. After establishing the whole cell recording configuration, late INa activator is added to each well 4 times over a 16-17 minute period so that the late component of the Na current reaches a stable value. Compounds were then added (typically at 1 μM), in the presence of the late INa activator, with 3 additions over the course of 7 or 8 minutes. […]
# wild-type human cardiac sodium channel, hNav1.5, sequence (Q14524 whole entry): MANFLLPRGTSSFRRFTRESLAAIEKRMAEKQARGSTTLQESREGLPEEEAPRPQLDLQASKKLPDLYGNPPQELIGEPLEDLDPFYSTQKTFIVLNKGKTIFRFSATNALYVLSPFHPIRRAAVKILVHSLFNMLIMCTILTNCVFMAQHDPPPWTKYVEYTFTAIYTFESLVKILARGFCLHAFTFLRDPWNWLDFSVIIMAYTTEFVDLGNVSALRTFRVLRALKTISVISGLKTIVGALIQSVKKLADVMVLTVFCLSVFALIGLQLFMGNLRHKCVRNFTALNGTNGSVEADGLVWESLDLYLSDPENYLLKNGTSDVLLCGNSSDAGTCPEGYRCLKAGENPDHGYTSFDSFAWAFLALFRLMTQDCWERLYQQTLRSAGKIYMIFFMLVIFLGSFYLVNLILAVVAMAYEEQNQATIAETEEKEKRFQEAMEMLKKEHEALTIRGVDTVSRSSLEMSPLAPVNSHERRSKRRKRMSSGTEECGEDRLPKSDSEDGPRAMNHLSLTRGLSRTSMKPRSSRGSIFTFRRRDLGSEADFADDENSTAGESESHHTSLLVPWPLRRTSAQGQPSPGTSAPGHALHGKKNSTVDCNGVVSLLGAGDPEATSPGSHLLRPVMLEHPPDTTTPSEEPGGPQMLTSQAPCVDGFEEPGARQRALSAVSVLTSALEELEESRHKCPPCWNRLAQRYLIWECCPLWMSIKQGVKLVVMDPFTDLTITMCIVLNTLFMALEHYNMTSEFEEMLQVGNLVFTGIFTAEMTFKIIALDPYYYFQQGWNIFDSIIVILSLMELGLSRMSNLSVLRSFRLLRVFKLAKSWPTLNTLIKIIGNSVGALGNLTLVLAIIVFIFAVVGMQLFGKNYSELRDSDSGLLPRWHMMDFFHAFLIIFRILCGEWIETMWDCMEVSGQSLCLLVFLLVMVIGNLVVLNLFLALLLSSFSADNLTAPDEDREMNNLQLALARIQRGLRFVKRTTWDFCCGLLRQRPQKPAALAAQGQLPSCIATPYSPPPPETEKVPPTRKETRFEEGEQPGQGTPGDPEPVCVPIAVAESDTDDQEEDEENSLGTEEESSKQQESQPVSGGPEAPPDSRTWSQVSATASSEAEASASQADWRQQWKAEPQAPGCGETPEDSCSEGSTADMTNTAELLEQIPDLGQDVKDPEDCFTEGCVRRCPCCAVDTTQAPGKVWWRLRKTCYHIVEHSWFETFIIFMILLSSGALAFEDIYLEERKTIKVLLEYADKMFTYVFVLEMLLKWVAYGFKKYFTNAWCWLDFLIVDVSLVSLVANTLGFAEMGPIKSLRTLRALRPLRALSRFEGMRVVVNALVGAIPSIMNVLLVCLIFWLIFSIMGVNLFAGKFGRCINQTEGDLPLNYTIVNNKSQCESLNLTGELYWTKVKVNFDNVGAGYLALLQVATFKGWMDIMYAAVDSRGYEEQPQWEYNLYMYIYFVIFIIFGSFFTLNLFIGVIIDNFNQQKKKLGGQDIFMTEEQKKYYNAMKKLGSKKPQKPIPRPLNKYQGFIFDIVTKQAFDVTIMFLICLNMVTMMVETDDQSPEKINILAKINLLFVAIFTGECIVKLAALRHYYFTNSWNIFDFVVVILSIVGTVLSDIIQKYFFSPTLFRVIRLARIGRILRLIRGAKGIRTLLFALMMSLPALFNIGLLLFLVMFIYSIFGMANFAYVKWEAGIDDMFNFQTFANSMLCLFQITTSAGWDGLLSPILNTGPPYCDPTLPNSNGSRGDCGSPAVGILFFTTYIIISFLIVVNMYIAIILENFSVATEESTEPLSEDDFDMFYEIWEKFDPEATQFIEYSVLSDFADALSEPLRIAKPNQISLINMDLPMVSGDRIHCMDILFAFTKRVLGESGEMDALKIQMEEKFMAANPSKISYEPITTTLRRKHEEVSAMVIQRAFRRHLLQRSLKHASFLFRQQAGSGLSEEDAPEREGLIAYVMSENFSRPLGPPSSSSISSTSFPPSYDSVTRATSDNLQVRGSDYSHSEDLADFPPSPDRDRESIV
row,SMILES,inhibition at 1 µM [%]
1,"FC(F)(F)c1ccc(-c2ccc3c(c2)-c2nncn2CCO3)cc1 [Compound I-3, 10-(4-(trifluoromethyl)phenyl)-5,6-dihydrobenzo[f][1,2,4]triazolo[4,3-d][1,4]oxazepine]",13
2,"Cc1nnc2n1CCOc1ccc(-c3ccc(C(F)(F)F)cc3)cc1-2 [Compound I-4, 3-methyl-10-(4-(trifluoromethyl)phenyl)-5,6-dihydrobenzo[f][1,2,4]triazolo[4,3-d][1,4]oxazepine]",10
3,"FC(F)(F)c1ccc(-c2ccc3c(c2)-c2nnc(C4CC4)n2CCO3)cc1 [Compound I-5, 3-cyclopropyl-10-(4-(trifluoromethyl)phenyl)-5,6-dihydrobenzo[f][1,2,4]triazolo[4,3-d][1,4]oxazepine]",18
4,"FC(F)(F)c1ccc(-c2ccc3c(c2)-c2ncc(-c4ncccn4)n2CCO3)cc1 [Compound I-7, 3-(pyrimidin-2-yl)-10-(4-(trifluoromethyl)phenyl)-5,6-dihydrobenzo[f]imidazo[1,2-d][1,4]oxazepine]",17
5,"FC(F)(F)c1ccc(-c2ccc3c(c2)C2=NCCCN2CCO3)cc1 [Compound I-8, 11-(4-(trifluoromethyl)phenyl)-3,4,6,7-tetrahydro-2H-benzo[f]pyrimido[1,2-d][1,4]oxazepine]",9
6,"CC(=O)c1cnc2n1CCOc1ccc(-c3ccc(C(F)(F)F)cc3)cc1-2 [Compound I-15, 1-(10-(4-(trifluoromethyl)phenyl)-5,6-dihydrobenzo[f]imidazo[1,2-d][1,4]oxazepin-3-yl)ethanone]",12
7,"N#Cc1cnc2n1CCOc1ccc(-c3ccc(C(F)(F)F)cc3)cc1-2 [Compound I-16, 10-(4-(trifluoromethyl)phenyl)-5,6-dihydrobenzo[f]imidazo[1,2-d][1,4]oxazepine-3-carbonitrile]",1
8,"Cc1cnc2n1CCOc1ccc(-c3ccc(OC(F)(F)F)cc3)cc1-2 [Compound I-17, 3-methyl-10-(4-(trifluoromethoxy)phenyl)-5,6-dihydrobenzo[f]imidazo[1,2-d][1,4]oxazepine]",14
9,"FC(F)(F)Oc1ccc(-c2ccc3c(c2)-c2ncc(C4CC4)n2CCO3)cc1 [Compound I-18, 3-cyclopropyl-10-(4-(trifluoromethoxy)phenyl)-5,6-dihydrobenzo[f]imidazo[1,2-d][1,4]oxazepine]",20
10,"Cc1cn2c(n1)-c1cc(-c3ccc(C(F)(F)F)cc3)ccc1OCC2 [Compound I-19, 2-methyl-10-(4-(trifluoromethyl)phenyl)-5,6-dihydrobenzo[f]imidazo[1,2-d][1,4]oxazepine]",13
11,"FC(F)(F)c1ccc(-c2ccc3c(c2)-c2nc(C4CC4)cn2CCO3)cc1 [Compound I-20, 2-cyclopropyl-10-(4-(trifluoromethyl)phenyl)-5,6-dihydrobenzo[f]imidazo[1,2-d][1,4]oxazepine]",12
12,"O=C(O)c1cn2c(n1)-c1cc(-c3ccc(C(F)(F)F)cc3)ccc1OCC2 [Compound I-22, 10-(4-(trifluoromethyl)phenyl)-5,6-dihydrobenzo[f]imidazo[1,2-d][1,4]oxazepine-2-carboxylic acid]",5
13,"Cn1cncc1-c1cn2c(n1)-c1cc(-c3ccc(C(F)(F)F)cc3)ccc1OCC2 [Compound I-23, 2-(1-methyl-1H-imidazol-5-yl)-10-(4-(trifluoromethyl)phenyl)-5,6-dihydrobenzo[f]imidazo[1,2-d][1,4]oxazepine]",3
14,"FC(F)(F)c1ccc(-c2ccc3c(c2)C(N2CCOCC2)=NCCO3)cc1 [II-1, 5-morpholino-7-(4-(trifluoromethyl)phenyl)-2,3-dihydrobenzo[f][1,4]oxazepine]",21
15,"FC(F)(F)c1ccc(-c2ccc3c(c2)C(N2CCCC2)=NCCO3)cc1 [II-3, 5-(pyrrolidin-1-yl)-7-(4-(trifluoromethyl)phenyl)-2,3-dihydrobenzo[f][1,4]oxazepine]",25
16,"FC(F)(F)c1ccc(-c2ccc3c(c2)C(NC2CC2)=NCCO3)cc1 [II-4, N-cyclopropyl-7-(4-(trifluoromethyl)phenyl)-2,3-dihydrobenzo[f][1,4]oxazepin-5-amine]",25
17,"CN(Cc1ccccc1)C1=NCCOc2ccc(-c3ccc(C(F)(F)F)cc3)cc21 [II-5, N-benzyl-N-methyl-7-(4-(trifluoromethyl)phenyl)-2,3-dihydrobenzo[f][1,4]oxazepin-5-amine]",28
18,"FC1(F)CCN(C2=NCCOc3ccc(-c4ccc(C(F)(F)F)cc4)cc32)C1 [II-6, 5-(3,3-difluoropyrrolidin-1-yl)-7-(4-(trifluoromethyl)phenyl)-2,3-dihydrobenzo[f][1,4]oxazepine]",7
19,"FC(F)(F)c1ccc(-c2ccc3c(c2)C(NCc2ncccn2)=NCCO3)cc1 [II-7, N-(pyrimidin-2-ylmethyl)-7-(4-(trifluoromethyl)phenyl)-2,3-dihydrobenzo[f][1,4]oxazepin-5-amine]",14
20,"CN(C1=NCCOc2ccc(-c3ccc(C(F)(F)F)cc3)cc21)C1CC1 [II-8, N-cyclopropyl-N-methyl-7-(4-(trifluoromethyl)phenyl)-2,3-dihydrobenzo[f][1,4]oxazepin-5-amine]",13
21,"Fc1cccnc1CNC1=NCCOc2ccc(-c3ccc(C(F)(F)F)cc3)cc21 [II-9, N-((3-fluoropyridin-2-yl)methyl)-7-(4-(trifluoromethyl)phenyl)-2,3-dihydrobenzo[f][1,4]oxazepin-5-amine]",23
22,"FC(F)(F)c1ccc(-c2ccc3c(c2)C(NCc2ccccn2)=NCCO3)cc1 [II-10, N-(pyridin-2-ylmethyl)-7-(4-(trifluoromethyl)phenyl)-2,3-dihydrobenzo[f][1,4]oxazepin-5-amine]",32
23,"CC(C)(C)OC(=O)NC1CN(C2=NCCOc3ccc(-c4ccc(C(F)(F)F)cc4)cc32)C1 [II-12, tert-butyl 1-(7-(4-(trifluoromethyl)phenyl)-2,3-dihydrobenzo[f][1,4]oxazepin-5-yl)azetidin-3-ylcarbamate]",9
24,"CC(C)(C)OC(=O)N[C@H]1CCN(C2=NCCOc3ccc(-c4ccc(C(F)(F)F)cc4)cc32)C1 [II-13, (S)-tert-butyl 1-(7-(4-(trifluoromethyl)phenyl)-2,3-dihydrobenzo[f][1,4]oxazepin-5-yl)pyrrolidin-3-ylcarbamate]",15
25,"FC(F)(F)c1ccc(-c2ccc3c(c2)C(NCCn2ccnc2)=NCCO3)cc1 [II-14, N-(2-(1H-imidazol-1-yl)ethyl)-7-(4-(trifluoromethyl)phenyl)-2,3-dihydrobenzo[f][1,4]oxazepin-5-amine]",17
26,"OC[C@H]1CCN(C2=NCCOc3ccc(-c4ccc(C(F)(F)F)cc4)cc32)C1 [II-16, (S)-(1-(7-(4-(trifluoromethyl)phenyl)-2,3-dihydrobenzo[f][1,4]oxazepin-5-yl)pyrrolidin-3-yl)methanol]",13
27,"Cn1ccnc1CNC1=NCCOc2ccc(-c3ccc(C(F)(F)F)cc3)cc21 [II-17, N-((1-methyl-1H-imidazol-2-yl)methyl)-7-(4-(trifluoromethyl)phenyl)-2,3-dihydrobenzo[f][1,4]oxazepin-5-amine]",10
28,"NC1CN(C2=NCCOc3ccc(-c4ccc(C(F)(F)F)cc4)cc32)C1 [II-18, 1-(7-(4-(trifluoromethyl)phenyl)-2,3-dihydrobenzo[f][1,4]oxazepin-5-yl)azetidin-3-amine]",9
